Data as given in article PMC12477777, “Human exposure to green spaces and monoterpenes: discovery and use of α-pinene metabolites as biomarkers” (Environment international, 2025).

Columns and labels:
[1] = Urinary aPM after 4 h greenness (forest) exposure; assay type: in vivo, human; design: Maximum response: unit not given here; conditions: for Frequency of occurrence / Maximum response: human urine, greenness exposure; for Proportion (observed) after greenness exposure: share of total aPM response
Description: (§1) Briefly, for controlled inhalation experiments, eight healthy volunteers were exposed to α-pinene in a custom-built exposure chamber via inhalation from a 15 ml conical tube, containing approximately 100 μl α-pinene, for a duration of 10 min. Urine samples were collected before exposure (0 h) and 0.5, 1, 2, 3, and 4 h after exposure. […] Urine samples were collected both before (0 h) or 4 h after exposure. After collection, the urine samples were centrifuged and stored at −80 °C before analysis. […] Demographic information, including sex, age and race, can be found in Table S1.
(§2) Briefly, after 1:10 dilution, urine samples were separated using an Acquity I-Class UPLC system with an Acquity Premier CSH C18 UPLC column (Waters, MA) with a gradient comprising 0.1 % formic acid in water as the solvent A and 0.1 % formic acid in acetonitrile as the solvent B. Mass Spectrometry Elevated Energy (MS^E) data were collected using a Waters Synapt XS MS (Waters, MA) with an ESI ion source operated in the negative mode. Subsequent analyses of raw files were performed using UNIFI 1.9 and Progenesis QI 3.0 (both from Waters, MA). To validate LC-MS performance, one quality control (QC) sample, prepared by pooling equal amount of each urine sample, was injected after every ten urine sample injections.
(§3) Relative quantification of aPM was performed based on the peak responses normalized to urinary creatinine levels. Urinary creatinine levels were measured using an Ace Axcel Clinical Chemistry System with ACE Creatinine Reagent from Alfa Wassermann (West Caldwell, NJ). Statistical analyses, including ANOVA and Student’s t-tests, were conducted using SAS 9.4 (SAS Institute, NC) to explore differences in aPM across various time points. […] A threshold for statistical significance was defined as p < 0.05.

[2] = Kinetic modeling of urinary aPM with a pseudo one-compartment nonlinear mixed-effects model after α-pinene inhalation; assay type: in vivo, human; conditions: for F (%), fraction of metabolite generated from absorbed α-pinene: human urine after 10 min α-pinene inhalation, F normalized to the sum of 22 detected metabolites; for Elimination t1/2 / Ka, first-order generation constant / Ke, first-order elimination rate constant: human urine after α-pinene inhalation, pseudo one-compartment model
From the text: In this equation, i represents the participant index, j the urine sample index, C the creatinine-normalized peak response, and t the sample collection time ( h).Ka denotes the first-order generation constant ( h^−1 ), and Ke denotes the first-order elimination rate constant h^−1 . F indicates the fraction of specific aPM relative to absorbed α-pinene. The variables D and V refer to the absorbed α-pinene amount and the distribution volume, respectively. Because input data were derived from relative quantification, absolute values of D , V , and F were not available. For simplicity, D and V were fixed at 100 and 1, respectively, and F was normalized relative to the sum of all detected aPM. The error term ε accounts for residual variation.

[3] = Relative quantification of urinary aPM (UPLC-QTOF-MS, creatinine-normalized) after controlled α-pinene inhalation; assay type: in vivo, human; conditions: for Frequency of occurrence (percentage of samples with analyte detected) / Maximum response (highest peak response across all urine samples) / Observed Tmax: human urine after α-pinene inhalation; for Proportion (observed) after α-pinene inhalation: share of total response of 22 aPM, averaged over post-exposure samples
Description: as §1, §2, §3

[4] = aPM in mouse urine after i.p. injection of (+)-α-pinene or (−)-α-pinene; assay type: in vivo, mice (C57BL/6); conditions: for (1R)-(+)-α-Pinene (Average), proportion of aPM in mouse urine / (1S)-(−)-α-Pinene (Average), proportion of aPM in mouse urine: mouse urine collected overnight, 50 mg/kg; for (1R)-(+)-α-Pinene (Average), proportion of aPM in mouse urine: 50 mg/kg i.p. (+)-α-pinene; for (1S)-(−)-α-Pinene (Average), proportion of aPM in mouse urine: 50 mg/kg i.p. (−)-α-pinene; for R/(R+S): mouse urine, enantiomer specificity
Description: Mouse urine was collected after exposures to either (+) or (−) α-pinene to distinguish between metabolites of different enantiomers of α-pinene. Adult male mice (C57BL/6) were intraperitoneally administered with 50 mg/kg body weight of (+)-α-pinene or (−)-α-pinene dissolved in 100 μl sterile saline with 1 % Tween 80.

Row | Compound | Frequency of occurrence [1] | F (%), fraction of metabolite generated from absorbed α-pinene [2] | Elimination t1/2 [2] | Ka, first-order generation constant [2] | Ke, first-order elimination rate constant [2] | Frequency of occurrence (percentage of samples with analyte detected) [3] | Maximum response (highest peak response across all urine samples) [3] | Observed Tmax [3] | Proportion (observed) after α-pinene inhalation [3] | (1R)-(+)-α-Pinene (Average), proportion of aPM in mouse urine [4] | (1S)-(−)-α-Pinene (Average), proportion of aPM in mouse urine [4] | R/(R+S) [4] | Maximum response [1] | Proportion (observed) after greenness exposure [1] | Detection in mouse urine ([4]; after exposure to either α-pinene enantiomer)
1 | CC1(C)C2CC=C(C(=O)OC3OC(C(=O)O)C(O)C(O)C3O)C1C2 (single isomer, unassigned) [aPM3a, Myrtenic acid-GlcA] | 0.0% | 2.92 ± 0.94% | 55.8 ± 16.2 min | 1.80 ± 0.67 h⁻¹ | 0.75 ± 0.22 h⁻¹ | 93.8% | 50629 | 60 min | 3.2% | 0.0% | 10.0% | 0% |  |  | 
2 | CC1(C)C2CC=C(C(=O)OC3OC(C(=O)O)C(O)C(O)C3O)C1C2 (single isomer, unassigned) [aPM3b, Myrtenic acid-GlcA] | 87.5% |  | 36.6 ± 7.8 min | 1.98 ± 0.60 h⁻¹ | 1.13 ± 0.24 h⁻¹ | 100.0% | 352366 | 60 min |  | 1.6% | 2.7% | 37.5% | 2516 | 17.7% | present in murine samples
3 | CC1(C)C2CCC(C(=O)OC3OC(C(=O)O)C(O)C(O)C3O)C1C2 (single isomer, unassigned) [aPM4a, Dihydromyrtenic acid-GlcA] | 6.3% | 3.19 ± 1.11% | 42.6 ± 13.2 min | 2.12 ± 0.87 h⁻¹ | 0.98 ± 0.30 h⁻¹ | 89.6% | 72991 | 60 min | 2.4% | 0.0% | 5.0% | 0.0% | 53 | 0.0% | 
4 | CC1(C)C2CCC(C(=O)OC3OC(C(=O)O)C(O)C(O)C3O)C1C2 (single isomer, unassigned) [aPM4b, Dihydromyrtenic acid-GlcA] | 0.0% | 1.47 ± 0.63% | 47.4 ± 15.6 min | 1.34 ± 0.47 h⁻¹ | 0.87 ± 0.28 h⁻¹ | 81.3% | 14109 | 60 min | 1.2% | 0.0% | 4.2% | 0.0% |  |  | 
5 | α-Pinene-O-GlcA [aPM2a] |  | 0.51 ± 0.12% | 33.6 ± 4.8 min |  | 1.23 ± 0.17 h⁻¹ |  |  | 30 min |  |  |  |  |  | 0.9% | 
